Test results reported in patent US9997714B2, “Hole transport material” (MERCK PATENT GMBH, priority 2013, dated 2018).
Where two headings read alike, the source gives them in different places. One block for each molecule: values may come before it.

Assays:
[1] = Hole mobility by impedance spectroscopy; assay type: physicochemical; settings: for Hole mobility: ITO/PEDOT-PSS/HTM(400 nm)/Au cell, dc field intensity 10^5V/cm, four cells
Method: The hole mobility of the inventive compound 2,2′,7,7′-tetrakis-(N,N′-di-4-methoxy-3-methylphenylamine)-9,9′-spirobifluorene is measured and the value is compared with those of the reference materials according to example 2 and example 3.
The structure of the measurement cell is ITO(200 nm)/PEDOT-PSS(150 nm)/HTM(400 nm)/Au(60 nm).
The measurement is carried out using four cells for each HTM by means of impedance spectroscopy. (Ref. 1. H. Martens et al., Phys. Rev. B, 60, R8489 (1999), Ref. 2. S. Ishihara, et al., Proc. of IDW'09, p 1085 (2009)). In the impedance measurement, a direct current (dc) voltage is applied to the test cell in order to inject holes from an anode. The hole mobility is determined under the dc field intensity of 10^5V/cm.

[2] = Qualitative solubility of the HTM in chlorobenzene (spin-coat solution); assay type: physicochemical; settings: for solubility compared with reference materials: in words; for solubility: organic solvent or mixture
Method: A solution for a spin-coat is prepared in a N2 glove box as follows: at first, 20 mg of a hole transport material is dissolved in 95 μL of chlorobenzene. The hole transport material needs to be dissolved completely. A mother solution of lithium bis(trifluorosulfonyl)imide (LiTFSI) and tert-butylpyridine (TBP) is prepared separately at room temperature and is added to the hole transporter solution to set the molar ratio to [hole transporter]:[LiTFSI]:[TBP]=10:1:10 at room temperature. Thus the final volume of the solution is 100 μL.
The solubility of the HTMs according to examples 1, 2 and 3 are evaluated qualitatively:
1 means: 20 mg of HTM is completely dissolved without heating
2 means: HTM is dissolved after heating to 80° C.
3 means: HTM is dissolved after adding salt and base solution and heating to 80° C.
4 means: HTM is dissolved after adding another 50 μL of chlorobenzene and heat to 80° C. (final folume 150 μl).

[3] = order of magnitude, background; cited from earlier work
[4] = 20 mg of HTM in 95 μL chlorobenzene completely dissolved without heating, read-out: solubility grade 1

- hole mobility compared with reference example 3 ([1]; in words): more than one order of magnitude larger
Structure (SMILES): COc1ccc(N(c2ccc(OC)c(C)c2)c2ccc3c(c2)C2(c4cc(N(c5ccc(OC)c(C)c5)c5ccc(OC)c(C)c5)ccc4-3)c3cc(N(c4ccc(OC)c(C)c4)c4ccc(OC)c(C)c4)ccc3-c3ccc(N(c4ccc(OC)c(C)c4)c4ccc(OC)c(C)c4)cc32)cc1C
- hole mobility compared with spiro-OMeTAD ([1]; in words): larger than the hole mobility of spiro-OMeTAD

- Hole mobility [1]: 1.29E−04 cm^2/Vs
- solubility grade 1 ([2]; 20 mg of HTM in 95 μL chlorobenzene completely dissolved without heating): ✓
- solubility compared with reference materials ([2]; listed as compound of formula (I)): better solubility than spiro-OMeTAD
Structure (SMILES): COc1ccc(N(c2ccc(OC)c(C)c2)c2ccc3c(c2)C2(c4cc(N(c5ccc(OC)c(C)c5)c5ccc(OC)c(C)c5)ccc4-3)c3cc(N(c4ccc(OC)c(C)c4)c4ccc(OC)c(C)c4)ccc3-c3ccc(N(c4ccc(OC)c(C)c4)c4ccc(OC)c(C)c4)cc32)cc1C [Example 1, 2,2′,7,7′-tetrakis-(N,N′-di-4-methoxy-3-methylphenylamine)-9,9′-spirobifluorene]
- solubility compared with reference materials ([2]; listed as hole transport material according to the invention): better solubility than the reference materials

- Hole mobility [1]: 9.34E−06 cm^2/Vs
- solubility grade 4 ([2]; HTM dissolved after adding another 50 μL of chlorobenzene and heat to 80° C., final volume 150 μl): ✓
- solubility ([2]; chlorobenzene with LiTFSI and tert-butylpyridine solution, HTM dissolved after adding salt and base solution and heating to 80° C., read-out: solubility grade 3): < 210 mg/mL
- solubility ([2]; chlorobenzene, HTM dissolved after heating to 80° C., read-out: solubility grade 2): < 210 mg/mL
- solubility [2, 4]: < 210 mg/mL
Structure (SMILES): COc1c(C)cc(N(c2cc(C)c(OC)c(C)c2)c2ccc3c(c2)C2(c4cc(N(c5cc(C)c(OC)c(C)c5)c5cc(C)c(OC)c(C)c5)ccc4-3)c3cc(N(c4cc(C)c(OC)c(C)c4)c4cc(C)c(OC)c(C)c4)ccc3-c3ccc(N(c4cc(C)c(OC)c(C)c4)c4cc(C)c(OC)c(C)c4)cc32)cc1C [Example 3]

Structure (SMILES): COc1ccc(N(c2ccc(OC)cc2)c2ccc3c(c2)C2(c4cc(N(c5ccc(OC)cc5)c5ccc(OC)cc5)ccc4-3)c3cc(N(c4ccc(OC)cc4)c4ccc(OC)cc4)ccc3-c3ccc(N(c4ccc(OC)cc4)c4ccc(OC)cc4)cc32)cc1 [Example 2, 2,2′,7,7′-tetrakis-(N,N′-di-4-methoxyphenylamine)-9,9′-spirobifluorene]
- Hole mobility [1]: 1.08E−04 cm^2/Vs
- solubility grade 2 ([2]; HTM dissolved after heating to 80° C.): ✓
- solubility [2, 4]: < 210 mg/mL
- charge carrier mobility [3]: ~10^−4 cm^2/Vs
